Where “and” joins values, the source holds several entries; their conditions need not be identical. Equal values may be shown once.
Target: Isoform Tau-F of Microtubule-associated protein tau (Human, UniProt P10636)
Assay: Tau Protein Assay
Details: pH 7.4
Description: The Tau content of fractions was determined by dot blot analysis using nitrocellulose membranes (0.2 μm porosity) as described previously [Cisek et al., Biophys. Chem., 170:25-33]. The membranes were blocked in 5% nonfat dry milk dissolved in blocking buffer (100 mM Tris-HCl, pH 7.4, and 150 mM NaCl) for 1 h and then incubated with primary antibody Tau5 at 1:5000 dilution for 2 h. Membranes were then washed three times with blocking buffer and incubated with horseradish peroxidase-linked secondary antibody for 2 h. After washing another three times with blocking buffer, membranes were imaged using the Enhanced Chemiluminescence Western blotting Analysis System (GE Healthcare, Buckinghamshire, UK) recorded on an Omega 12iC Molecular Imaging System and quantified using Ultra-Quant software (UltraLum, Claremont, CA, USA).

Isoform Tau-F of Microtubule-associated protein tau, sequence (P10636 as listed by the source): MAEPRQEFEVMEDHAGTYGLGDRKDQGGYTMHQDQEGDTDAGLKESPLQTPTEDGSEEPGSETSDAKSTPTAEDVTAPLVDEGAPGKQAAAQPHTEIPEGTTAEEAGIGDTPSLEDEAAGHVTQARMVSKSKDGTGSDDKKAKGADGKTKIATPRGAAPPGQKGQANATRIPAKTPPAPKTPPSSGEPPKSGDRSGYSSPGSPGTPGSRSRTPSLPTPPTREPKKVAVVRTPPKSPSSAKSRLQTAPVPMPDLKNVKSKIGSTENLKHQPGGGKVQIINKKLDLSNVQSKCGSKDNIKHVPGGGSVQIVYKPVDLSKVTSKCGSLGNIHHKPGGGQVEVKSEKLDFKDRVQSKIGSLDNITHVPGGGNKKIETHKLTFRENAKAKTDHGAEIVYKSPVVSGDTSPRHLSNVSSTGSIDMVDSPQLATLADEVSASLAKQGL

Question: Which IC50 does the source give for `CCC(/C=C1\Sc2ccc(OC)cc2N1CCO)=C\c1sc2ccc(OC)cc2[n+]1CCO` here?
Answer: Its IC50 is 290 nM.

Question: Which IC50 does the source give for `N=c1ccc2nc3ccc(N)cc3sc-2c1` here?
Answer: The IC50 was greater than 10000 nM.

Question: How did the IC50 turn out when `C[N+](C)=c1ccc2nc3ccc(N)cc3sc-2c1` [AZURE A] was run?
Answer: The IC50 was greater than 10000 nM.

Question: How did the IC50 turn out when `CNc1ccc2nc3ccc(=[N+](C)C)cc-3sc2c1` [Azure B (11)] was run?
Answer: The IC50 was 1280 nM.

Question: Which IC50 does the source give for `C/N=c1\ccc2nc3ccc(N)cc3sc-2c1` [Azure C (13)] here?
Answer: The IC50 was greater than 10000 nM.

Question: With `CN(C)c1ccc(N=C2C=CC(=[N+](C)C)C=C2)cc1` [Bindschedler's green (19)] as the compound, how does the IC50 read?
Answer: The IC50 was 1090 nM.

Question: Which IC50 does the source give for `CN(C)c1ccc(C(=C2C=CC(=[N+](C)C)C=C2)c2ccc(N(C)C)cc2)cc1` [CHEBI:77181] here?
Answer: Its IC50 is 490 nM.

Question: For `O=C1C=CC(=C(c2ccc(O)cc2)c2ccc(O)cc2)C=C1` [Corallin], which IC50 is on record?
Answer: The IC50 was greater than 10000 nM.

Question: `CCCN1/C(=C/C=C/C2=[N+](CCC)c3ccccc3C2(C)C)C(C)(C)c2ccccc21` [Cyanines, 6] was tested. Which IC50 did it give?
Answer: Its IC50 is 2570 nM.

Question: With `C1=C2\Sc3ccccc3N2CCCC[n+]2c(sc3ccccc32)/C=C/C=C2\Sc3ccccc3N2CCCC[n+]2c(sc3ccccc32)/C=C/1` [Cyanines, 9] as the compound, how does the IC50 read?
Answer: The IC50 was 120 nM.

Question: With `N=C1C=CC(=C(c2ccc(N)cc2)c2ccc(N)cc2)C=C1` [Fuschin (17)] as the compound, how does the IC50 read?
Answer: Its IC50 is greater than 10000 nM.

Question: Which IC50 does the source give for `CN(C)c1ccc(C(=C2C=CC(=[N+](C)C)C=C2)c2ccccc2)cc1` [Malachite green (16)] here?
Answer: The IC50 was 520 nM.

Question: `O=C(O)CCN1C(=O)/C(=C/c2ccc(-c3ccc(-c4ccccc4)cc3)o2)SC1=S` [Rhodanines, 20A] was tested. Which IC50 did it give?
Answer: The IC50 was 170 nM.

Question: `O=C(O)CCN1C(=O)/C(=C/c2ccc(-c3ccc(-c4ccc(C(=O)O)o4)cc3)o2)SC1=S` [Rhodanines, 21A] was tested. Which IC50 did it give?
Answer: Its IC50 is 170 nM.

Question: Which IC50 does the source give for `O=C(O)CCCCN1C(=O)/C(=C/c2ccc(-c3ccc(-n4cccc4)cc3)o2)SC1=S` [Rhodanines, 22A] here?
Answer: The IC50 was 210 nM.

Question: For `O=C(O)CCCN1C(=O)/C(=C/c2ccc(-c3ccc(-n4cccc4)cc3)o2)SC1=S` [Rhodanines, 23A], which IC50 is on record?
Answer: Its IC50 is 230 nM.

Question: With `O=C(O)CCN1C(=O)/C(=C/c2ccc(-c3ccc(-n4cccc4)cc3)o2)SC1=S` [Rhodanines, 24A] as the compound, how does the IC50 read?
Answer: Its IC50 is 240 nM.

Question: How did the IC50 turn out when `O=C(O)CCCCN1C(=O)/C(=C/c2ccc(-c3ccc(-c4ccccc4)cc3)o2)SC1=S` [Rhodanines, 25A] was run?
Answer: Its IC50 is 240 nM.

Question: For `O=C(O)CCCCN1C(=O)/C(=C/c2ccc(-c3ccc(-c4ccc(C(=O)O)o4)cc3)o2)SC1=S` [Rhodanines, 26A], which IC50 is on record?
Answer: Its IC50 is 260 nM.

Question: With `O=C(O)CC(C(=O)O)N1C(=O)/C(=C/c2ccc(-c3cccc(Cl)c3)o2)SC1=S` (stereo unspecified) [Rhodanines, 27A] as the compound, how does the IC50 read?
Answer: The IC50 was 420 nM.

Question: Which IC50 does the source give for `O=C(O)CCN1C(=O)/C(=C/c2ccc(-c3cccc(Cl)c3)o2)SC1=S` [Rhodanines, 28A] here?
Answer: The IC50 was 470 nM.

Question: With `O=C1/C(=C/c2ccc(-c3ccc(-n4cccc4)cc3)o2)SC(=S)N1Cc1nc2ccccc2[nH]1` [Rhodanines, 29A] as the compound, how does the IC50 read?
Answer: Its IC50 is 540 nM.

Question: `O=C(O)Cc1ccc(CN2C(=O)/C(=C/c3ccc(-c4ccc(-c5ccc(C(=O)O)o5)cc4)o3)SC2=S)cc1` [Rhodanines, 30A] was tested. Which IC50 did it give?
Answer: Its IC50 is 580 nM.

Question: How did the IC50 turn out when `O=C(O)CCN1C(=O)/C(=C/c2ccc(-c3ccccc3Cl)o2)SC1=S` [Rhodanines, 31A] was run?
Answer: The IC50 was 650 nM.

Question: How did the IC50 turn out when `O=C1/C(=C/c2ccc(-c3cccc(Cl)c3)o2)SC(=S)N1Cc1nc2ccccc2[nH]1` [Rhodanines, 32A] was run?
Answer: Its IC50 is 670 nM.

Question: `O=C(O)Cc1ccc(CN2C(=O)/C(=C/c3ccc(-c4ccc(-c5ccccc5)cc4)o3)SC2=S)cc1` [Rhodanines, 33A] was tested. Which IC50 did it give?
Answer: Its IC50 is 730 nM.

Question: With `O=C(O)c1ccc(-c2ccc(-c3ccc(/C=C4\SC(=S)N(CCc5c[nH]cn5)C4=O)o3)cc2)o1` [Rhodanines, 34A] as the compound, how does the IC50 read?
Answer: The IC50 was 750 nM.

Question: How did the IC50 turn out when `O=C(O)Cc1ccc(CN2C(=O)/C(=C/c3ccc(-c4ccc(-n5cccc5)cc4)o3)SC2=S)cc1` [Rhodanines, 35A] was run?
Answer: The IC50 was 780 nM.

Question: With `O=C(O)CN1C(=O)/C(=C/c2ccc(-c3cccc(Cl)c3)o2)SC1=S` [Rhodanines, 36A] as the compound, how does the IC50 read?
Answer: Its IC50 is 820 nM.

Question: `O=C(O)CCCN1C(=O)/C(=C/c2ccc(-c3ccc(-c4ccccc4)cc3)o2)SC1=S` [Rhodanines, 37A] was tested. Which IC50 did it give?
Answer: Its IC50 is 940 nM.

Question: For `O=C(O)CCN1C(=O)/C(=C/c2ccc(-c3cccc(Cl)c3)s2)SC1=S` [Rhodanines, 38A], which IC50 is on record?
Answer: The IC50 was 970 nM.

Question: How did the IC50 turn out when `O=C1/C(=C/c2ccc(-c3cccc(Cl)c3)o2)SC(=S)N1CCc1c[nH]cn1` [Rhodanines, 39A] was run?
Answer: The IC50 was 1090 nM.

Question: For `O=C(O)CCCN1C(=O)/C(=C/c2ccc(-c3cccc(Cl)c3)o2)SC1=S` [Rhodanines, 40A], which IC50 is on record?
Answer: Its IC50 is 1220 nM.

Question: How did the IC50 turn out when `O=C1/C(=C/c2ccc(-c3ccc(-c4ccccc4)cc3)o2)SC(=S)N1Cc1nc2ccccc2[nH]1` [Rhodanines, 41A] was run?
Answer: The IC50 was 1400 nM.

Question: For `CC(C(=O)O)N1C(=O)/C(=C/c2ccc(-c3cccc(Cl)c3)o2)SC1=S` (stereo unspecified) [Rhodanines, 42A], which IC50 is on record?
Answer: The IC50 was 1410 nM and 4360 nM.

Question: For `O=C1/C(=C/c2ccc(-c3ccc(-n4cccc4)cc3)o2)SC(=S)N1CCc1c[nH]cn1` [Rhodanines, 43A], which IC50 is on record?
Answer: The IC50 was 1850 nM.

Question: For `O=C(O)Cc1ccc(CN2C(=O)/C(=C/c3ccc(-c4cccc(Cl)c4)o3)SC2=S)cc1` [Rhodanines, 44A], which IC50 is on record?
Answer: The IC50 was 1970 nM.

Question: `O=C(O)CN1C(=O)/C(=C/c2ccc(-c3cccc(Cl)c3)o2)OC1=S` [Rhodanines, 46A] was tested. Which IC50 did it give?
Answer: The IC50 was 3100 nM.

Question: With `O=C(O)CCCN1C(=O)/C(=C/c2cccc(-c3ccc(-c4ccccc4)cc3)n2)SC1=S` [Rhodanines, 51B] as the compound, how does the IC50 read?
Answer: The IC50 was 5030 nM.

Question: Which IC50 does the source give for `O=C(O)CCCCN1C(=O)/C(=C/c2cccc(-c3ccc(-c4ccccc4)cc3)n2)SC1=S` [Rhodanines, 52B] here?
Answer: Its IC50 is 5030 nM.

Question: `O=C(O)CN1C(=O)/C(=C/c2ccc(-c3cccc(Cl)c3)o2)NC1=S` [Rhodanines, 53A] was tested. Which IC50 did it give?
Answer: The IC50 was 6100 nM.

Question: Which IC50 does the source give for `O=C1/C(=C/c2ccc(-c3ccc(-c4ccccc4)cc3)o2)SC(=S)N1CCc1c[nH]cn1` [Rhodanines, 54A] here?
Answer: Its IC50 is 7700 nM.

Question: For `O=C(O)CCN1C(=O)C(=CC2CCC(c3ccc(-c4ccccc4)cc3)C2)SC1=S` (stereo unspecified) [Rhodanines, 55A], which IC50 is on record?
Answer: The IC50 was 7920 nM.

Question: How did the IC50 turn out when `O=C1/C(=C/c2cccc(-c3ccc(-c4ccccc4)cc3)c2)SC(=S)N1CCc1c[nH]cn1` [Rhodanines, 57B] was run?
Answer: The IC50 was 9380 nM.

Question: `O=C1/C(=C/c2ccc(-c3ccc(-c4ccccc4)cc3)cc2)SC(=S)N1CCc1c[nH]cn1` [Rhodanines, 58B] was tested. Which IC50 did it give?
Answer: Its IC50 is 12400 nM.

Question: For `O=C(O)Cc1ccc(CN2C(=O)/C(=C/c3ccc(-c4ccc(-c5ccccc5)cc4)cc3)SC2=S)cc1` [Rhodanines, 59B], which IC50 is on record?
Answer: The IC50 was 14800 nM.

Question: For `O=C(O)CCN1C(=O)/C(=C/c2ccc(-c3ccc(-c4ccccc4)cc3)cc2)SC1=S` [Rhodanines, 60B], which IC50 is on record?
Answer: Its IC50 is 19600 nM.

Question: `O=C(O)Cc1ccc(CN2C(=O)/C(=C/c3cccc(-c4ccc(-c5ccccc5)cc4)n3)SC2=S)cc1` [Rhodanines, 62B] was tested. Which IC50 did it give?
Answer: Its IC50 is 35500 nM.

Question: `O=C1/C(=C/c2cccc(-c3ccc(-c4ccccc4)cc3)n2)SC(=S)N1CCc1c[nH]cn1` [Rhodanines, 63B] was tested. Which IC50 did it give?
Answer: The IC50 was 117000 nM.

Question: How did the IC50 turn out when `O=C(O)Cc1ccc(CN2C(=O)/C(=C/c3cccc(-c4ccc(-c5ccccc5)cc4)c3)SC2=S)cc1` [Rhodanines, 64B] was run?
Answer: The IC50 was 146000 nM.

Question: `CCN1/C(=C/C(C)=C/c2sc3ccccc3[n+]2CC)Sc2ccccc21` [SMR000354813] was tested. Which IC50 did it give?
Answer: The IC50 was 280 nM.

From BindingDB's records for doi:10.1074/jbc.M113.503474 (The Ohio State University, 2013)
